Results on nine molecules are retold here after ChEMBL document CHEMBL4364315, “Synthesis and evaluation of cytotoxic and Na+/K+-ATP-ase inhibitory activity of selected 5α-oleandrigenin derivatives” (Eur J Med Chem, 2019).

The source made the active and inactive calls. The calls are words filed in the database; no cut-off is given here. A value given as a limit tells only on which side of the number the result lay.

By IC50 is commonly meant the concentration that gives 50% inhibition. A word on the inhibition: it is the drop in the measured response relative to a control, in per cent.

Test [1] deals with T1, Sodium/potassium-transporting ATPase (Sus scrofa) (UniProt P05027+P05024+D2WKD8+D2WKD7+F1ST41). The experiment in a line: Inhibition of porcine kidney Na+/K+-ATPase assessed as residual activity at 50 uM preincubated for 2 mins followed by ATP addition and measured after 6 mins by bagin-sky assay relative to untreated control. It is filed as protein-complex assay.
In test [2] the test system is CCRF-CEM. The experiment in a line: Antiproliferative activity against human CEM cells assessed as reduction in cell viability after 72 hrs by resazurin dye based assay. The test is classed as functional.
The test system of test [3] is BJ. The experiment in a line: Cytotoxicity against human BJ cells assessed as reduction in cell viability after 72 hrs by resazurin dye based assay. On the technique in general: Alamar Blue is a resazurin reagent that responds to reducing activity.
Test [4] deals with HeLa. Briefly: Antiproliferative activity against human HeLa cells assessed as reduction in cell viability after 72 hrs by resazurin dye based assay. It is filed as functional.
Test [5] deals with A2780. The experiment in a line: Antiproliferative activity against human A2780 cells assessed as reduction in cell viability after 72 hrs by resazurin dye based assay. The test is classed as functional. As to conditions: A2780, 72 h.
In test [6] the test system is CCRF-CEM. The experiment in a line: Effect on cell cycle analysis in human CEM cells at 15 uM after 24 hrs by RNase A/propidium iodide staining-based flow cytometric analysis. It is filed as functional.
Test [7] concerns MCF7. The experiment in a line: Antiproliferative activity against human MCF7 cells assessed as reduction in cell viability after 72 hrs by resazurin dye based assay. The settings on record: MCF7, 72 h. It is filed as functional.
Test [8] deals with Hep 3B2. Briefly: Antiproliferative activity against human Hep3B cells assessed as reduction in cell viability after 72 hrs by resazurin dye based assay. The test is classed as functional.
For test [9], the system named is CCRF-CEM. The experiment in a line: Cell cycle arrest in human CEM cells assessed as reduction in cell population at S phase at 15 uM after 24 hrs by RNase A/propidium iodide staining-based flow cytometric analysis. It is filed as functional. For orientation: In flow cytometry, cells or beads pass a laser one at a time.
The subject of test [10] is CCRF-CEM. Briefly: Cell cycle arrest in human CEM cells assessed as increase in cell population at G0/G1 phase at 15 uM after 24 hrs by RNase A/propidium iodide staining-based flow cytometric analysis. The test is classed as functional.
In test [11] the target is T1, Sodium/potassium-transporting ATPase (Sus scrofa). Briefly: Inhibition of porcine kidney Na+/K+-ATPase at 50 uM preincubated for 2 mins followed by ATP addition and measured after 6 mins by bagin-sky assay relative to Olean-drigenin. It is filed as protein-complex assay.
For test [12], the system named is CCRF-CEM. The experiment in a line: Induction of apoptosis in human CEM cells assessed as decrease in Mcl-1 expression at 15 uM after 24 hrs by Western blot analysis. It is filed as functional, cell-based. Background: In western blotting, separated proteins are transferred to a membrane and probed.
Test [13] deals with CCRF-CEM. Briefly: Induction of apoptosis in human CEM cells assessed as PARP-1 cleavage at 15 uM after 24 hrs by Western blot analysis. It is filed as functional, cell-based.
The subject of test [14] is CCRF-CEM. The experiment in a line: Cell cycle arrest in human CEM cells assessed as accumulation of cells at sub-G1 phase at 15 uM after 24 hrs by RNase A/propidium iodide staining-based flow cytometric analysis. The test is classed as functional.
The test system of test [15] is CCRF-CEM. The experiment in a line: Induction of apoptosis in human CEM cells assessed as caspase-7 fragmentation at 15 uM after 24 hrs by Western blot analysis. The test is classed as functional, cell-based.
The test system of test [16] is CCRF-CEM. The experiment in a line: Induction of apoptosis in human CEM cells assessed as increase in relative activity of caspase-3/7 at 15 uM using AC-DEVD-AMC as substrate after 24 hrs by fluorescence based assay. It is filed as functional, cell-based.
In test [17] the test system is CCRF-CEM. The experiment in a line: Induction of apoptosis in human CEM cells assessed as increase in relative activity of caspase-3/7 at 15 uM using AC-DEVD-AMC as substrate after 24 hrs by fluorescence based assay relative to untreated control. It is filed as functional.
The subject of test [18] is CCRF-CEM. The experiment in a line: Cell cycle arrest in human CEM cells assessed as decrease in cell population at G0/G1 phase at 15 uM after 24 hrs by RNase A/propidium iodide staining-based flow cytometric analysis. The test is classed as functional.
For test [19], the system named is CCRF-CEM. The experiment in a line: Cell cycle arrest in human CEM cells assessed as increase in accumulation of cells in G2/M phase after 24 hrs by RNase A/propidium iodide staining-based flow cytometric analysis. The test is classed as functional.
The test system of test [20] is CCRF-CEM. The experiment in a line: Cell cycle arrest in human CEM cells assessed as increase in accumulation of cells in S phase after 24 hrs by RNase A/propidium iodide staining-based flow cytometric analysis. The test is classed as functional.

`CO[C@H]1CC[C@@]2(C)[C@@H](CC[C@@H]3[C@@H]2CC[C@]2(C)[C@@H](c4ccoc4)[C@@H](OC(C)=O)C[C@]32O)C1`: in test [1], the Activity was determined as 75%. Besides, the IC50 in [2], in [3], in test [4], in test [5], in test [7] and in test [8] was above 50 µM in each case. The result in test [6] was inactive.

In the case of `CO[C@H]1CC[C@@]2(C)[C@@H](CC[C@@H]3[C@@H]2CC[C@]2(C)[C@@H](C4=CC(=O)OC4)[C@@H](O)[C@H]4O[C@]342)C1`, the Activity in [1] came to 75%. Also, the IC50 in [2], in test [3], in test [4], in [5] and in test [7] was above 50 µM each time. The outcome in [9] and in test [10] was Active.

For the molecule `CO[C@H]1C[C@H](O[C@H]2CC[C@@]3(C)[C@H](CC[C@@H]4[C@@H]3CC[C@]3(C)[C@@H](C5=CC(=O)OC5)[C@@H](OC(C)=O)C[C@]43O)C2)O[C@@H](C)[C@@H]1O` [OLEANDRIN], the Activity in [1] amounted to 49%. Further, the IC50 in [2] stood at 0.019 µM; in [3] it was 0.026 µM; in [4], 0.062 µM; in test [7] it was 0.033 µM. Besides, the inhibition in test [11] turned out to be 25%.

Consider `CC(=O)O[C@H]1C[C@]2(O)[C@@H]3CC[C@@H]4C[C@@H](O)CC[C@]4(C)[C@H]3CC[C@]2(C)[C@H]1C1=CC(=O)OC1`, for which, in [1], the Activity was determined as 75%. Further, the IC50 in test [2] worked out at 0.2 µM; in test [3] it was 0.1 µM; in test [4], 0.2 µM; in test [7], 0.8 µM.

Consider `CO[C@H]1CC[C@@]2(C)[C@@H](CC[C@@H]3[C@@H]2CC[C@]2(C)[C@@H](C4=CC(=O)OC4)[C@@H](OC(C)=O)[C@H]4O[C@]342)C1`, for which, in test [1], the Activity was determined as 25%. Besides, the IC50 in test [2] turned out to be 2.5 µM; in test [3], 4.5 µM; in [4] it was 11.3 µM; in [5], 1.7 µM; in test [7], 7.6 µM. For the same molecule, the result in test [12], in test [13], in test [14], in test [15] and in test [16] was Active.

In the case of `CO[C@H]1CC[C@@]2(C)[C@@H](CC[C@@H]3[C@@H]2CC[C@]2(C)[C@@H](C4=CC(=O)OC4)[C@@H](OC(C)=O)[C@@H]4O[C@@]342)C1`, the Activity in test [1] came to 104%. Moreover, the IC50 is 1.3 µM in [2]; 5.7 µM in [3]; 17.5 µM in test [4]; 4.9 µM in test [5]; 4.4 µM in test [7]; above 50 µM in [8]. Also, the result in test [12], in test [13], in test [14] and in test [15] was Active. In addition, the “fold change (FC)” value in test [17] is given as “<=19”.

In the case of `CO[C@H]1CC[C@@]2(C)[C@@H](CC[C@@H]3[C@@H]2CC[C@]2(C)[C@@H](C4=CC(=O)OC4)[C@@H](O)C[C@]32O)C1`, the Activity in test [1] came out at 25%. Moreover, the IC50 in [2] is 14.1 µM; in [3], above 50 µM; in test [4], above 50 µM; in test [5], above 50 µM; in [7], above 50 µM. Besides, the result in test [13], in [14] and in [15] was Active. In addition, in [16], the result was inactive.

For the molecule `CO[C@H]1CC[C@@]2(C)[C@@H](CC[C@@H]3[C@@H]2CC[C@]2(C)[C@@H](C4=CC(=O)OC4)[C@@H](OC(C)=O)C[C@]32O)C1`, the result in test [18], in test [13], in test [14], in [15] and in test [16] was Active. Also, the Activity in test [1] is 24%; in test [19] it was “Dose-dependent effect”; in [20], “Dose-dependent effect”. Besides, the IC50 turned out to be 5.8 µM in [2]; 7.9 µM in [3]; 14.8 µM in test [4]; 5.9 µM in [5]; 21.1 µM in [7]; 7.7 µM in [8].

In the case of `CO[C@H]1CC[C@@]2(C)[C@@H](CC[C@@H]3[C@@H]2CC[C@]2(C)[C@@H](c4ccoc4)[C@@H](O)[C@H]4O[C@]342)C1`, the Activity in test [1] amounted to 101%. The IC50 in [2] was 36.4 µM; in [3], above 50 µM; in test [4], 11.9 µM; in test [5], 18.4 µM; in test [7], 50 µM; in test [8], 27.2 µM.
